Our source for the melting point values is patent publication US6433009B1, “Sulfonyl urea derivatives and their use in the control of interleukin-1 activity” (Pfizer Inc, priority 1997, dated 2002).

A word on the melting point: it is the temperature of the solid-liquid transition.

Take `O=C(Nc1c2c(cc3c1CCC3)CCC2)NS(=O)(=O)c1ccc2[nH]cnc2c1` [Example 127, 1-(1H-Benzoimidazole-5-sulfonyl)-3-(1,2,3,5,6,7-hexahydro-s-indacen-4-yl)-urea]: the melting point is 239 °C (dec.).
Then `CC(=O)c1cccc(S(=O)(=O)NC(=O)Nc2c(C(C)C)cccc2C(C)C)c1` [Example 56, 1-(3-Acetyl-benzenesulfonyl)-3-(2,6-diisopropyl-phenyl)-urea], with 151.6 to 153.5 °C.
